Results published in patent US8470765B2, “Polypeptides and antibacterial or antiseptic use of same” (AnGes MG, Inc., priority 2009, dated 2013).
In brackets after ≈: the same amount, converted by molar mass. Like-named read-outs stand apart in the source and are kept apart here. No end group written: not given here.

How the values were obtained:
[1] = system: Enterobacter aerogenes JCM 1235; assay: microbe, parasite or virus in culture; format: cell-based; conditions: for MIC: Klebsiella aerogenes, JCM1235
How it was run: (§1)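 Inoculum: 4–6 h subculture, turbidity matched to McFarland #0.5, diluted to ~10^5 CFU/mL final. Peptide dilutions in MHB from 128 μg/mL; 37° C, 16–24 h. MIC = lowest concentration inhibiting visible growth; ≥2 independent runs per strain.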

[2] = system: Staphylococcus epidermidis JCM 2414; assay: microbe, parasite or virus in culture; format: cell-based; conditions: for MIC: Staphylococcus epidermidis, JCM2414, read-out: MIC Staphylococcus epidermidis
How it was run: as §1

[3] = system: Staphylococcus aureus ATCC29213; assay: microbe, parasite or virus in culture; format: cell-based; conditions: for MIC: Staphylococcus aureus, ATCC29213, read-out: MIC Staphylococcus aureus, Table 4, two tests, first/second value where not identical; for MIC Staphylococcus aureus: ATCC29213
How it was run: as §1

[4] = system: Pseudomonas aeruginosa ATCC 27853; assay: microbe, parasite or virus in culture; format: cell-based; conditions: for MIC: Pseudomonas aeruginosa, ATCC27853, read-out: MIC Pseudomonas aeruginosa
How it was run: as §1

[5] = system: Staphylococcus aureus ATCC29213; assay: ATP Assay (viability at 3 hours), Table 6; format: cell-based; conditions: for viability at 10 µg/mL: ATCC29213, 3 h, read-out: Staphylococcus aureus ATP (viability, relative value to negative control); for Staphylococcus aureus ATP (viability, relative value to negative control): 3 h, 5 μg/mL
How it was run: (§2)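 Log-phase bacteria at about 10^5 CFU/mL final in Mueller-Hinton broth were exposed 3 h at 37 °C to peptide (solution prepared at 10 μg/mL before 1:1 mixing with inoculum). ATP (BacTiter-Glo luminescence) relative to untreated wells defined viability; two independent experiments.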

[6] = system: Pseudomonas aeruginosa ATCC 27853; assay: ATP Assay (viability at 3 hours), Table 6; format: cell-based; conditions: for viability at 10 µg/mL: ATCC27853, 3 h, read-out: Pseudomonas aeruginosa ATP (viability, relative value to negative control); for Pseudomonas aeruginosa ATP (viability, relative value to negative control): 3 h, 5 μg/mL
How it was run: as §2

[7] = system: Escherichia coli ATCC 25922; assay: ATP Assay (viability at 3 hours), Table 6; format: cell-based; conditions: for viability at 10 µg/mL: ATCC25922, 3 h, read-out: Escherichia coli ATP (viability, relative value to negative control); for Escherichia coli ATP (viability, relative value to negative control): 3 h, 5 μg/mL
How it was run: as §2

[8] = system: Aspergillus niger NBRC 9455
[9] = system: Rhizopus oryzae NBRC 31005
[10] = system: Cryptococcus neoformans IFM 46660
[11] = system: Trichophyton rubrum NBRC9185
[12] = system: Acinetobacter baumanni JCM6841
[13] = system: Bacillus subtilis NBRC3134; conditions: NBRC3134
[14] = system: Salmonella enteritidis IID 604
[15] = system: Actinobacillus actinomycetemcomitans JCM2434
[16] = system: Enterobacter cloacae JCM 1232; format: cell-based; conditions: Table 4; two tests, first/second value where not identical
Protocol: Bacteria (Escherichia coli ATCC 25922, Pseudomonas aeruginosa ATCC 27853, Staphylococcus aureus ATCC29213, Klebsiella pneumoniae JCM 1662, Enterobacter cloacae JCM 1232, Enterobacter aerogenes JCM 1235 and Staphylococcus epidermidis JCM 2414) were inoculated to Mueller-Hinton broth: MHB or LB medium, and cultured at a temperature and period suited for each strain. From the thus obtained colonies, each strain was inoculated to a fresh liquid medium and cultured for 16 to 20 hours. Then an aliquot having a volume (10 to 50 appropriate to each strain was inoculated to a fresh liquid medium and cultured for 4 to 6 hours, followed by the measurement of the absorbance at 600 nm. After comparing the turbidity with McFarland #0.5, the resultant was diluted with a medium. Each strain was added to about 10^5 CFU/mL (final concentration). Each of the peptide solutions to be tested was diluted with MHB to obtain a solution of 128 μg/mL. […] As controls, tobramycin (TOB: aminoglucoside antibiotic), oxacillin (OX:β-lactam antibiotic), meropenem (MEPM: carbapenem antibiotic) and ciprofloxacin (new quinolone antibiotic) were used. […] To a 96-well microtiter plate, 0.1 mL of the inoculation solution and 0.1 mL of the peptide- or positive control-containing medium having the respective concentration were added, and cultured at 37° C. for 16 to 24 hours (or a time period suited for the growth of the respective strain). The well not containing the sample was used as a negative control. After the culturing, the growth was visually observed, and the minimum concentration at which the growth was inhibited was defined as the minimum growth inhibition concentration (MIC). The medium used in this test for bacteria was Mueller-Hinton broth. Independent experiments were carried out twice or more for each strain.

[17] = system: Streptococcus pyogenes JCM5674
[18] = system: Alternaria alternata JCM5800; conditions: JCM5800
[19] = Table 4, two tests, first/second value where not identical

Molecule	MIC Staphylococcus aureus [3] [µg/mL]	MIC Candida krusei (Candida krusei NBRC1395; NBRC1395) [µg/mL]	MIC Aspergillus niger [8, 19]	MIC Rhizopus oryzae ([9]; NBRC 31005) [µg/mL]	MIC Cryptococcus neoformans ([10]; IFM 46660) [µg/mL]	MIC Trichophyton rubrum ([11]; NBRC9185) [µg/mL]	MIC Acinetobacter baumanni ([12]; JCM6841) [µg/mL]	MIC Bacillus subtilis [13] [µg/mL]	Staphylococcus aureus ATP (viability, relative value to negative control) [5]	Pseudomonas aeruginosa ATP (viability, relative value to negative control) [6]	Escherichia coli ATP (viability, relative value to negative control) [7]	MIC Actinobacillus actinomycetemcomitans [15] [µg/mL]	MIC Enterobacter cloacae [16]	MIC Streptococcus pyogenes [17] [µg/mL]	MIC Alternaria alternata [18] [µg/mL]	MIC Enterobacter aerogenes [1, 19]	MIC Pseudomonas aeruginosa [4, 19]	MIC Salmonella Enteritidis ([14]; IID 604) [µg/mL]	MIC Staphylococcus epidermidis [2, 19]	other results
NC[C@H]1O[C@H](O[C@H]2[C@H](O)[C@@H](O[C@H]3O[C@H](CO)[C@@H](O)[C@H](N)[C@H]3O)[C@H](N)C[C@@H]2N)[C@H](N)C[C@@H]1O [tobramycin, reference compound]	–	–	–	–	–	–	–	–	–	–	–	–	–	–	–	–	–	–	–	MIC [1, 19]: < 4000 µg/mL; MIC [2, 19]: 0.12 to 1 µg/mL (≈ 0.257 to 2.14 µM); MIC [3]: 0.12 to 1 µg/mL (≈ 0.257 to 2.14 µM); MIC [4, 19]: 0.25 to 1 µg/mL (≈ 0.535 to 2.14 µM); viability at 10 µg/mL [5]: 6.7%; viability at 10 µg/mL [6]: 1.2%; viability at 10 µg/mL [7]: 74.3%
C[C@@H](O)[C@H]1C(=O)N2C(C(=O)O)=C(S[C@@H]3CN[C@H](C(=O)N(C)C)C3)[C@H](C)[C@H]12 [meropenem, reference compound]	–	–	–	–	–	–	–	–	–	–	–	–	–	–	–	–	–	–	–	MIC [1, 19]: < 4000 µg/mL; MIC [2, 19]: 0.03 to 0.12 µg/mL (≈ 0.0782 to 0.313 µM); MIC [3]: 0.03 to 0.12 µg/mL (≈ 0.0782 to 0.313 µM); MIC [4, 19]: 0.25 to 1 µg/mL (≈ 0.652 to 2.61 µM); viability at 10 µg/mL [5]: 15.7%; viability at 10 µg/mL [6]: 16.1%; viability at 10 µg/mL [7]: 15.3%
GRLKRMGERLKRKIQKWIRW-NH2 [SRP-15]	16	16	8/16	16	2	64	32	4	0.3	1.6	0.5	32	16/32	16	64	–	–	–	–	MIC Enterobacter aerogenes ([1]; JCM 1235): 16 µg/mL; MIC Staphylococcus epidermidis ([2]; JCM 2414): 8 µg/mL; MIC Pseudomonas aeruginosa ([4]; ATCC 27853): 16 µg/mL; MIC Salmonella Enteritidis [14, 19]: 8/16; MIC Fusarium solani (Fusarium solani JCM11383; [19]): 16/32
IFLHRLKRMRKRLKRKLRLW-OH [SRP-7]	32	–	8/16	–	2	–	128	4	0.2	1.0	1.6	128	16/128	32	32	16/64	8/16	4	–	MIC Staphylococcus epidermidis ([2]; JCM 2414): 8 µg/mL; MIC Candida krusei (Candida krusei NBRC1395; [19]): 64/32; MIC Rhizopus oryzae [9, 19]: 8/16; MIC Trichophyton rubrum [11, 19]: 64/32; MIC Fusarium solani (Fusarium solani JCM11383; JCM11383): 8 µg/mL
GRLKRMGKRLKRKIQKWARW-NH2 [SRP-14]	16	32	4/8	8	1	32	64	4	0.3	1.0	1.2	64	32/128	16	32	16/32	–	4	8/16	MIC Pseudomonas aeruginosa ([4]; ATCC 27853): 16 µg/mL; MIC Fusarium solani (Fusarium solani JCM11383; JCM11383): 4 µg/mL
LIFLHRLKRMRKRLKRKLRL-NH2 [SRP-12]	16	–	8/16	8	1	–	–	–	0.2	1.0	6.5	–	128< mg/mL	–	–	32/64	16/32	–	4/8	–
KNLRRIIRKIIHIIKKYG-NH2 [Ovispirin-1, reference compound]	16	16	–	> 128	–	64	–	2	–	–	–	128	32/64	32	64	16/32	16/32	16	8/16	MIC Aspergillus niger ([8]; NBRC 9455): 32 µg/mL; MIC Cryptococcus neoformans [10, 19]: 2/4; MIC Acinetobacter baumanni [12, 19]: 4/8; MIC Fusarium solani (Fusarium solani JCM11383; [19]): 4/8
